# How the values were obtained:
# [1] = tested on: interaction between NCL and the G4s of EBNA1 mRNA; conditions: earlier study, Lista et al. Nat Commun 2017; cited from earlier work
# [2] = tested on: GAr-based inhibition of translation; experiment: Yeast assay (assays described in Lista et al.); assay type: cell-based, Saccharomyces cerevisiae
# From the text: A yeast-based (Saccharomyces cerevisiae) assay that recapitulates all the aspects of the GAr-based inhibition of translation, including the GAr-length dependency, has been developed, that allowed understanding the mechanisms of GAr-mediated mRNA translation—suppression in cis, as well as the cellular factors involved (Lista et al. Biotechnol J 2015, 10, 1670-1681). This assay was successfully used to identify small molecular weight compounds that can stimulate EBNA1 expression both in yeast and mammalian cells and that relieve GAr-based limitation of antigen presentation (Voisset et al. Dis Model Mech 2014, 7, 435-444).
# Compounds 1a, 2a, 4a, 5a, 7a, 10a and 11a were also tested in the various assay described in Lista et al. (Nat Commun 2017, 8, 16043).
# G4-RNA EBNA1 = experiment: HT-G4-FID assay: Thiazole Orange displacement from G4-RNA; assay type: binding, Epstein-Barr virus
# Experimental: This assay is based on the displacement of a fluorescent indicator (Thiazole Orange, hereinafter TO) from a G4-RNA structure (RNA G-quadruplex of EBNA1) by a putative ligand such as the compounds of the invention (see FIG. 1). This displacement is quantified as % TO displacement. The percentage of TO displacement is calculated from the fluorescence intensity (F) in the presence of a putative ligand, using:
# [formula] where F0 is fluorescence intensity of the probe (TO) bound to RNA without added ligand. The percentage of displacement is then plotted as a function of the concentration of added ligand. The RNA affinity of putative ligands is evaluated using the concentration of a ligand required to decrease the fluorescence of the probe by 50% (noted DC50), which is determined graphically from non-linear fitting of the displacement curve. […] 2. Materials and Reagents
# Thiazole Orange (TO) and cacodylic acid were purchased from Aldrich and used without further purification. The oligoribonucleotide EBNA1 [5′-r(GGGGCAGGAGCAGGAGGA)-3′] (SEQ ID no 1) purified by reversed-phase HPLC was purchased from Eurogentec.
# Stock solutions of the ligands (2 mM in DMSO (dimethylsulfoxyde)) were used for G4-FID assay, unless otherwise stated, and were stored at −20° C. Stock solutions of TO (2 mM in DMSO) were used for G4-FID assay. Fluorescent probe powders and solutions were stored and used, protected from light and used as aliquots to avoid freeze-thaw cycles. HT-G4-FID measurements were performed on a FLUOstar Omega microplate reader (BMG Labtech) with 96-well Non-Binding Surface black with black bottom polystyrene microplates (Corning ref 3650).
# For HT-G4-FID assay, the oligonucleotide was dissolved in K^+−100-buffer (10 mM lithium cacodylate, pH 7.3, 100 mM KCl, 1 mM EDTA, 1% DMSO). Oligonucleotide concentrations were determined on the basis of their absorbance at 260 nm. Prior to use, the oligonucleotide was pre-treated by heating at 95° C. for 5 min followed by a slow cooling to 25° C.
# Each G4-FID assay is performed in a 96-well microplates. […] The microplate is filled with (a) K^+−100 solution (qs for 200 μL) (b) 10 μL of a solution of pre-folded oligonucleotides (5 μM) and TO (10 μM-2 eq) and (c) an extemporaneously prepared 5 μM ligand solution in K^+−100 buffer (0 to 100 μL along the line of the microplate, i.e., from column […]: 0, 0.125, 0.25, 0.375, 0.5, 0.625, 0.75, 1.0, 1.25, 1.5, 2.0 and 2.5 μM) (see Largy et al., Anal Bioanal Chem 2011, 400, 34193427). After 5 min of orbital shaking at 500 rpm, fluorescence intensity is measured using the following experimental parameters: positioning delay: 0.5 s, 20 flashes per well, emission/excitation filters (nm): 485/520, gain adjusted at 80% of the fluorescence from the most fluorescent well (i.e., a well from column A).
# Results are shown in Table 1 below (lower DC50 values indicate higher affinity of compounds to the G4-RNA structure of EBNA1).
# quadruplex RNA F-EBNA1-T = experiment: FRET-melting assay; assay type: binding, Epstein-Barr virus
# From the text: The FRET-melting assay is based on thermal denaturation of G4-ARN monitored by fluorescence due to the phenomenon of Förster Resonance Energy Transfer (FRET). This method uses quadruplex-forming RNA sequence dual-labeled with two different fluorophores: a donor (fluorescein, or FAM) and an acceptor (tetramethylrhodamine, or TAMRA). When RNA is folded into G-quadruplex (G4) structure, fluorescence of the donor fluorophore is weak due to strong energy transfer (FRET) to the neighboring acceptor fluorophore. Upon thermal denaturation, the quadruplex unfolds and the fluorophores are separated, leading to decrease of the FRET effect and increase of the fluorescence of the donor (see FIG. 2). By following the fluorescence of the donor as a function of temperature, a melting curve of the G-quadruplex RNA can be obtained, which allows determining the temperature of denaturation at which 50% of the quadruples is unfolded (T1, FIG. 3).
# The FRET-melting assay allows assessing the affinity of small molecules (ligands) for the G4-RNA. The addition of a G4-ligand stabilizes the G-quadruplex structure and increases the denaturation temperature. The temperature of denaturation in the presence of ligands (T2) can be compared with that obtained in the absence of ligands (T1). The value of ΔTm (ΔTm=T2−T1) represents a measure of the affinity of the compounds of the invention (ligand). Generally, values of ΔTm>20° C. correspond to ligands of high affinity.
# The dual-labeled oligoribonucleotide EBNA1 [5′-FAM-r(GGGGCAGGAGCAGGAGGA)-TAMRA-3′] (SEQ ID no 2) purified by reversed-phase HPLC was purchased from Eurogentec. The donor fluorophore was 6-carboxyfluorescein (FAM) and the acceptor fluorophore was 6-carboxytetramethylrhodamine (TAMRA).
# Stock solutions of the ligands (2 mM in DMSO) were used for FRET-melting assay, unless otherwise stated, and were stored at −20° C. FRET-melting measurements are performed on 7900HT Fast Real-Time PCR System (Applied Biosystems) with Microamp Fast optical 96-well reaction plate (Applied Biosystems).
# Preparation of Oligonucleotides For FRET-melting assay, oligoribonucleotide F-EBNA1-T was dissolved in K^+10 buffer (10 mM lithium cacodylate buffer, pH 7.3, supplemented with 10 mM KCl and 90 mM LiCl).
# Prior to use, all oligonucleotides were pre-treated by heating at 95° C. for 5 min, then rapidly cooled to 4° C. to favor the intramolecular folding by kinetic trapping. Duplex-DNA ds26 (5′CAA-TCG-GAT-CGA-ATT-CGA-TCC-GAT-TG-3′) (SEQ ID no 3) was prepared by heating this self-complementary strand at 90° C. for 5 min in K^+10 buffer followed by a slow cooling over 6 h.
# FRET-melting assay is performed in 96-well plates on real time PCR apparatus 7900HT Fast Real-Time PCR System using the heating ramp as follow: 5 min at 25° C., then increase of 0.5° C. every minute until 95° C. Each experimental condition was tested in duplicated in a volume of 25 μL for each sample. The 96-well plates (Applied Biosystems) were prepared by aliquoting the annealed RNA (24 μL of 0.21 μM solution in K^+10 buffer) into each well, followed by 1 μL of ligand solution (25 μM in K^+10 buffer). For competition experiments, duplex competitors were added to 200 nM quadruplex sequences at final concentrations of 3.0 μM (15 eq) and 10.0 μM (50 eq), with a total reaction volume of 25 μL, with the labeled oligoribonucleotide (0.2 μM) and the ligand (1.0 μM). Measurements were made with excitation at 492 nm and detection at 516 nm. The change in the melting temperature in the presence of 1.0 μM putative ligand, ΔTm (1.0 μM), was calculated from at least two experiments by subtraction of the blank from the averaged melting temperature of each compound (1.0 μM).
# The results are shown in FIG. 4 and in Table 2 below (higher ΔTm values indicate higher affinity of the compounds to G4-RNA structure of EBNA1).
smiles,measurement,setting,value
C[n+]1cc(NC(=O)c2ccc3ccc4ccc(C(=O)Nc5cc6ccccc6[n+](C)c5)nc4c3n2)cc2ccccc21 [PhenDC3],NCL-EBNA1 mRNA G-quadruplex interaction by PLA,[1],prevented
"C[n+]1ccc(C=NNC(=O)c2ccc3ccc(C(=O)NN=Cc4cc[n+](C)cc4)nc3n2)cc1.[I-].[I-] [Compound 7a, N′^2,N′^7-Bis[(1-methylpyridinium-4-yl)methylene]-1,8-naphthyridine-2,7-dicarbohydrazide iodide]",result in the yeast assay,[2],positive results
"C[n+]1ccc(C=NNC(=O)c2ccc3ccc4ccc(C(=O)NN=Cc5cc[n+](C)cc5)nc4c3n2)cc1.[I-].[I-] [Compound 10a, N′^2,N′^9-Bis[(1-methylpyridinium-4-yl)methylene]-1,10-phenanthroline-2,9-dicarbohydrazide iodide]",DC50,"G4-RNA EBNA1; K+-100 buffer, pH 7.3, triplicate assays",320 ± 20 nM
same,"affinity for the G-quadruplex structure of EBNA1 (in words, FID data)",G4-RNA EBNA1; conclusion from Table 1,particularly high affinity
same,"ΔTm, ligand + 3 μM ds26","quadruplex RNA F-EBNA1-T; F-EBNA1-T 0.2 μM, ligand 1.0 μM, K+10 buffer, competitor DNA ds26 3 μM (15 eq)",15.0 ± 0.6 °C
same,"ΔTm, ligand + 10 μM ds26","quadruplex RNA F-EBNA1-T; F-EBNA1-T 0.2 μM, ligand 1.0 μM, K+10 buffer, competitor DNA ds26 10 μM (50 eq)",12.5 ± 1.5 °C
same,"ΔTm, ligand alone","quadruplex RNA F-EBNA1-T; F-EBNA1-T 0.2 μM, ligand 1.0 μM, K+10 buffer, no competitor",15.7 ± 0.6 °C
same,"affinity for the G-quadruplex structure of EBNA1 (in words, FRET-melting data)",quadruplex RNA F-EBNA1-T; conclusion from Table 2,particularly high affinity
same,result in the yeast assay,[2],positive results
"C[n+]1ccc(C=NNC(=O)c2cc(C(=O)NN=Cc3cc[n+](C)c4ccccc34)ncn2)c2ccccc21.[I-].[I-] [Compound 5a, N′^4,N′^6-Bis[(1-methylquinolinium-4-yl)methylene]pyrimidine-4,6-dicarbohydrazide iodide]",result in the yeast assay,[2],positive results
"C[n+]1ccc(C=NNC(=O)c2cc(C(=O)NN=Cc3cc[n+](C)cc3)ncn2)cc1.[I-].[I-] [Compound 4a, N′^4,N′^6-Bis[(1-methylpyridinium-4-yl)methylene]pyrimidine-4,6-dicarbohydrazide iodide]",result in the yeast assay,[2],positive results

# From patent publication US11406631B2, “Hydrazone derivatives for preventing or treating EBV-related cancers” (Universite de Bretagne Occidentale, priority 2018, dated 2022)
